Data: patent publication US6441237B1, “Substituted 3-phenoxy- and 3-phenylalkyloxy-2-phenyl-propylamines” (Boehringer Ingelheim Pharma KG, priority 1999, dated 2002)

| SMILES | melting point [°C] |
| --- | --- |
| Br.Cc1cccc(C)c1C(CNC(C)C)COCc1ccccc1F (stereo not drawn) | 111 |
| COCCNCC(COCc1c(F)cccc1F)c1c(C)cccc1C.Cl (stereo not drawn) | 128 |
| CCCNCC(COCc1ccccc1F)c1c(C)cccc1C.Cl (stereo not drawn) | 100 |
| Cc1cccc(C)c1C(CNC(C)C)COCc1ccccc1F.Cl (stereo not drawn) | 123 |
| CCCNCC(COCc1c(F)cccc1F)c1c(C)cccc1C.Cl (stereo not drawn) | 142 |
| Br.CCCN(CCC)CC(COCc1c(F)cccc1F)c1c(C)cccc1C (stereo not drawn) | 143 |
| Cc1cccc(C)c1C(COCc1c(F)cccc1F)CN(C)C.Cl (stereo not drawn) | 144 |
| Cc1cccc(C)c1C(CNCC1CC1)COCc1c(F)cccc1F.Cl (stereo not drawn) | 145 |
| Br.Cc1cccc(C)c1C(CNCC1CC1)COCc1ccccc1F (stereo not drawn) | 101 |
| C#CCNCC(COCc1c(F)cccc1F)c1c(C)cccc1C.Cl (stereo not drawn) [8.9] | 124 |

The next lines start with the values.

| melting point [°C] | SMILES |
| --- | --- |
| 128 | C=C(C)CN(C)CC(c1c(C)cccc1C)C(OC)c1c(F)cccc1F.O=C(O)C(=O)O (stereo not drawn) |
| 112 | C#CCNCC(COCc1ccccc1F)c1c(C)cccc1C.Cl (stereo not drawn) |
| 102 | Cc1cccc(C)c1C(CNC1CCCC1)COCc1ccccc1F.Cl (stereo not drawn) |
| 149 | Br.Cc1cccc(C)c1C(CNCC1CCCO1)COCc1c(F)cccc1F (stereo not drawn) |
| 138 | Cc1cccc(C)c1C(CNC(C)C)COCc1c(F)cccc1F.Cl (stereo not drawn) |
| 119 | Cc1cccc(C)c1C(CNCC(C)C)COCc1c(F)cccc1F.Cl (stereo not drawn) |
| 130 | Cc1cccc(C)c1C(CNC1CCCC1)COCc1c(F)cccc1F.Cl (stereo not drawn) |
| 77 | COCCNCC(COCc1ccccc1F)c1c(C)cccc1C.Cl (stereo not drawn) |
| 154 | Cc1cccc(C)c1C(CNCC1CC1)COCc1c(F)cccc1Cl.Cl (stereo not drawn) |
| 142 | Cc1cccc(C)c1COCC(CNCC1CC1)c1c(C)cccc1C.Cl (stereo not drawn) |
| 101 | Cc1cccc(C)c1C(CNCC1CC1)COCc1ccccc1F.Cl (stereo not drawn) |
| 191 | Cc1cccc(C)c1C(CNCC1CCC1)COCc1ccccc1F.Cl (stereo not drawn) |
| 145 | C#CCNCC(COCc1c(F)cccc1F)c1c(C)cccc1C.Cl (stereo not drawn) [8.12] |
| 116 | C=CCN(C)CC(c1c(C)cccc1C)C(OC)c1c(F)cccc1F.Cl (stereo not drawn) [11.55] |
